Measured values: patent US5959123A, “3,4-Disubstituted azetidin-2-one derivatives useful as cysteine proteinase regulators” (Synphar Laboratories, Inc., priority 1997, dated 1999)

Legend:
[1] = biological target: cathepsin B (Rattus norvegicus, UniProt P00787); test: In vitro assay for cathepsin B inhibition; type: biochemical; details: r rat cathepsin B; pH 5.1; 10 min incubation at room temperature; substrate N-CBZ-Phe-Arg-AMC (5 mM, 20 μl)
Experimental: The compounds of formula I were tested for inhibition of cathepsin B using the known method (A. J. Barret et al., Biochem. J. 1982, 201, 189-198). To a 170 μl of enzyme-buffer mixture (enzyme: r rat cathepsin B, diluted to give approximate 10 F units/min, buffer: 56 mM sodium acetate, 1.124 mM EDTA, 10 mM DTT, pH 5.1) a 10 μL of inhibitor (dissolved in DMSO) was added. After 10 min of incubation at room temperature, a 20 μl of 5 mM substrate (N-CBZ-Phe-Arg-AMC, dissolved in DMSO) was added to initiate reaction. Reading is followed up for 10 min at the fluoroscan reader (excitation at 380 nm emission at 460 nm).
(§1) A plot of percentage of inhibition vs inhibitor concentration is obtained, and IC50 is determined using a linear regression calculation (concentration of inhibitor which will give 50% inhibition).

[2] = biological target: cathepsin L (Rattus norvegicus, UniProt P07154); test: In vitro assay for cathepsin L inhibition; type: biochemical; details: r rat cathepsin L; pH 5.0; 10 min incubation at room temperature; substrate N-CBZ-Phe-Arg-AMC (1 mM, 20 μl)
Sequence of cathepsin L (P07154 114-334): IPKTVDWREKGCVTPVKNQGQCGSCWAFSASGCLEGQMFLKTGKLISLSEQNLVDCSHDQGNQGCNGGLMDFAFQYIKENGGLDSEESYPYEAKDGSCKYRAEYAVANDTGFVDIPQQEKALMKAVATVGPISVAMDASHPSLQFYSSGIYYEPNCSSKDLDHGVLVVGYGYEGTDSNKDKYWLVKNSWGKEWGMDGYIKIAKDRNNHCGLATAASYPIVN
Experimental: To a 170 μl of enzyme-buffer mixture (enzyme: r rat cathepsin L, diluted to give approximate 15 F units/min, buffer: 58.8 mM sodium citrate, 1.18 mM EDTA, 235 mM sodium chloride, 5 mM DTT, pH 5.0) a 10 μL of inhibitor (dissolved in DMSO) was added. After 10 min of incubation at room temperature, a 20 μl of 1 mM substrate (N-CBZ-Phe-Arg-AMC, dissolved in DMSO) was added to initiate reaction. Reading is followed up for 10 min at the fluoroscan reader (excitation at 380 nm emission at 460 nm).
as §1

Sequence of cathepsin B (P00787 80-333 limits assumed): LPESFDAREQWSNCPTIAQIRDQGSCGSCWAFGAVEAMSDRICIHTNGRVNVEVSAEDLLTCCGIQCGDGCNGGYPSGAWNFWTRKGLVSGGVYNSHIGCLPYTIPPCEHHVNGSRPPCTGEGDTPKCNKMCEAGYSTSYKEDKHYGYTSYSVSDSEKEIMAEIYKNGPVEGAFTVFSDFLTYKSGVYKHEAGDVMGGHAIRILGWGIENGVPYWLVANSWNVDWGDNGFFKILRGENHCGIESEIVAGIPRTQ

Row | Compound | IC50 [1] | IC50 [2]
1 | CC(=O)O[C@@H]1NC(=O)[C@H]1NC(=O)C(NC(=O)OCc1ccccc1)c1ccccc1 (mixture of isomers) [Example 3, (3S,4S)-3-(N-benzyloxycarbonyl-DL-phenylglycyl)-amino-4-acetoxy-azetidin-2-one] | > 50000 nM | 43100 nM
2 | CC(=O)O[C@@H]1NC(=O)[C@H]1NC(=O)C(Cc1cccs1)NC(=O)OCc1ccccc1 (mixture of isomers) [Example 7, (3S,4S)-3-(N-benzyloxycarbonyl-β-(2-thienyl)-DL-alanyl)-amino-4-acetoxy-azetidin-2-one] | 28600 nM | 2320 nM
3 | CC(=O)O[C@@H]1NC(=O)[C@H]1NC(=O)C1Cc2ccccc2N1C(=O)OCc1ccccc1 (stereo partly drawn) [Example 1, (3S,4S)-3-(1 -N-benzyloxycarbonyl-2-indolinecarbonyl)-amino-4-acetoxy-azetidin-2-one] | > 50000 nM | 26700 nM
4 | CC(=O)O[C@@H]1NC(=O)[C@H]1NC(=O)[C@H](NC(=O)OCc1ccccc1)c1ccccc1 [Example 2, (3S,4S)-3-(N-benzyloxycarbonyl-D-phenylglycyl)-amino-4-acetoxy-azetidin-2-one] | > 50000 nM | > 50000 nM
5 | CC(=O)O[C@@H]1NC(=O)[C@H]1NC(=O)[C@H](CCc1ccccc1)NC(=O)OCc1ccccc1 [Example 4, (3S,4S)-3-(N-benzyloxycarbonyl-L-homophenylalanyl)-amino-4-acetoxy-azetidin-2-one] | > 50000 nM | 11400 nM
6 | CC(=O)O[C@@H]1NC(=O)[C@H]1NC(=O)[C@H](Cc1cccnc1)NC(=O)OCc1ccccc1 [Example 5, (3S,4S)-3-{N-benzyloxycarbonyl-β-(3-pyridyl)-L-alanyl}-amino-4-acetoxy-azetidin-2-one] | > 50000 nM | 8260 nM
7 | CC(=O)O[C@@H]1NC(=O)[C@H]1NC(=O)[C@H](Cc1ccccn1)NC(=O)OCc1ccccc1 [Example 6, (3S,4S)-3-(N-benzyloxycarbonyl-β-(2-pyridyl)-L-alanyl)-amino-4-acetoxy-azetidin-2-one] | > 50000 nM | 12100 nM
8 | CC(=O)O[C@@H]1NC(=O)[C@H]1NC(=O)[C@H](Cc1ccc2ccccc2c1)NC(=O)OCc1ccccc1 [Example 8, (3S,4S)-3-(N-benzyloxycarbonyl-β-(2-naphthyl)-L-alanyl)-amino-4-acetoxy-azetidin-2-one] | 16400 nM | 13.5 nM
9 | CC(=O)O[C@@H]1NC(=O)[C@H]1NC(=O)[C@H](Cc1cccc(F)c1)NC(=O)OCc1ccccc1 [Example 9, (3S,4S)-3-{N-benzyloxycarbonyl-β-(3-fluorophenyl)-L-alanyl}-amino-4-acetoxy-azetidin-2-one] | 18800 nM | 341 nM
10 | COc1ccc(C[C@H](NC(=O)OCc2ccccc2)C(=O)N[C@@H]2C(=O)N[C@H]2OC(C)=O)cc1 [Example 10, (3S,4S)-3-{N-benzyloxycarbonyl-β-(4-methoxyphenyl)-L-alanyl}-amino-4-acetoxy-azetidin-2-one] | 7510 nM | 57 nM
11 | O=C(N[C@@H](Cc1ccc2ccccc2c1)C(=O)N[C@@H]1C(=O)N[C@H]1Oc1ccccc1)OCc1ccccc1 [Example 11, (3S,4S)-3-{N-benzyloxycarbonyl-β-(2-naphthyl)-L-alanyl}-amino-4-phenoxy-azetidin-2-one] | 900 nM | 15 nM
12 | Cc1cccc(O[C@@H]2NC(=O)[C@H]2NC(=O)[C@H](Cc2ccc3ccccc3c2)NC(=O)OCc2ccccc2)c1 [Example 12A, (3S,4S)-3{N-benzyloxycarbonyl-β-(2-naphthyl)-L-alanyl}-amino-4-(3-methylphenoxy)-azetidin-2-one] | 380 nM | 3 nM
13 | Cc1cccc(O[C@H]2NC(=O)[C@H]2NC(=O)[C@H](Cc2ccc3ccccc3c2)NC(=O)OCc2ccccc2)c1 [Example 12B, (3S,4R)-3-{N-benzyloxycarbonyl-β-(2-naphthyl)-L-alanyl}-amino-4-(3-methylphenoxy)-azetidin-2-one] | 80 nM | 0.4 nM
14 | O=C(N[C@@H](Cc1ccc2ccccc2c1)C(=O)N[C@@H]1C(=O)N[C@H]1Oc1ccc2ccccc2c1)OCc1ccccc1 [Example 13A, (3S,4S)-3-{N-benzyloxycarbonyl-β-(2-naphthyl)-L-alanyl}amino-4-(2-naphthoxy)-azetidin-2-one] | 1800 nM | 2.9 nM
15 | O=C(N[C@@H](Cc1ccc2ccccc2c1)C(=O)N[C@@H]1C(=O)N[C@@H]1Oc1ccc2ccccc2c1)OCc1ccccc1 [Example 13B, (3S,4R)-3-{N-benzyloxycarbonyl-β-(2-naphthyl)-L-alanyl}-amino-4-(2-naphthoxy)-azetidin-2-one] | 71.5 nM | 0.11 nM
16 | O=C(N[C@@H](Cc1ccc2ccccc2c1)C(=O)N[C@@H]1C(=O)N[C@H]1Oc1cccc(N2CCOCC2)c1)OCc1ccccc1 [Example 14A, (3S,4S)-3-{N-benzyloxycarbonyl-β-(2-naphthyl)-L-alanyl}amino-4-{3-(morpholin-4-yl)-phenoxy}-azetidin-2-one] | 1700 nM | 2.7 nM
17 | O=C(N[C@@H](Cc1ccc2ccccc2c1)C(=O)N[C@@H]1C(=O)N[C@@H]1Oc1cccc(N2CCOCC2)c1)OCc1ccccc1 [Example 14B, (3S,4R)-3-{N-benzyloxycarbonyl-β-(2-naphthyl)-L-alanyl}-amino-4-{3-(morpholin-4-yl)-phenoxy}-azetidin-2-one] | 340 nM | 0.5 nM
18 | O=C(CCc1ccccc1)NC(Cc1ccc2ccccc2c1)C(=O)NC1C(=O)NC1Sc1ccccc1 [Example 15, (3S,4SR)-3-{N-(3-phenylpropionoyl)-β-(2-naphthyl)-L-alanyl}-amino-4-phenylthio-azetidin-2-one] | 1910 nM | 6.1 nM
19 | O=C(CCc1ccccc1)NC(Cc1ccc2ccccc2c1)C(=O)NC1C(=O)NC1S(=O)(=O)c1ccccc1 [Example 16, (3S,4SR)-3-{N-(3-phenylpropionoyl)-β-(2-naphthyl)-L-alanyl}-amino-4-phenylsulfonyl-azetidin-2-one] | 1600 nM | 8.6 nM
20 | O=C(CCc1ccccc1)NC(Cc1ccc2ccccc2c1)C(=O)NC1C(=O)NC1SCCO [Example 17, (3S,4SR)-3-{N-(3-phenylpropionoyl)-β-(2-naphthyl)-L-alanyl}-amino-4-(2-hydroxyethylthio)-azetidin-2-one] | 10100 nM | 400 nM
21 | O=C(CCc1ccccc1)N[C@@H](Cc1ccc2ccccc2c1)C(=O)N[C@@H]1C(=O)NC1OCc1ccccc1 (stereo partly drawn) [Example 18, (3S,4SR)-3{N-(3-phenylpropionoyl)-β-(2-naphthyl)-L-alanyl}-amino-4-benzyloxy-azetidin-2-one] | 1920 nM | 76.7 nM
22 | O=C(CCc1ccccc1)N[C@@H](Cc1ccc2ccccc2c1)C(=O)N[C@@H]1C(=O)NC1OC1CCCCC1 (stereo partly drawn) [Example 19, (3S,4SR)-3{N-(3-phenylpropionoyl)-β-(2-naphthyl)-L-alanyl}-amino-4-cyclohexyloxy-azetidin-2-one] | 1950 nM | 390 nM
23 | CC(=O)O[C@@H]1NC(=O)[C@H]1NC(=O)[C@H](Cc1ccc2ccccc2c1)NS(=O)(=O)/C=C/c1ccccc1 [Example 20, (3S,4S)-3-{N-(trans-2-phenyl-eth-1-enesulfonyl)-β-(2-naphthyl)-L-alanyl}-amino-4-acetoxy-azetidin-2-one] | 395 nM | 79 nM
24 | CC(=O)O[C@@H]1NC(=O)[C@H]1NC(=O)[C@H](Cc1ccc2ccccc2c1)NC(=O)NCc1ccccc1 [Example 21, (3S,4S)-3-{N-(benzylaminocarbonyl)-β-(2-naphthyl)-L-alanyl}-amino-4-acetoxy-azetidin-2-one] | 2200 nM | 10 nM
25 | N[C@@H](Cc1ccc(OC2NC(=O)[C@H]2NC(=O)[C@H](Cc2ccc3ccccc3c2)NC(=O)NCc2ccccc2)cc1)C(=O)O (stereo partly drawn) [Example 22, (3S,4SR)-3-{N-(benzylaminocarbonyl)-β-(2-naphthyl)-L-alanyl}-amino-4-{4-(2S-2-amino-2-carboxy-ethyl)-phenoxy}-azetidin-2-one] | 8400 nM | 13 nM
26 | CC(=O)O[C@@H]1NC(=O)[C@H]1NC(=O)[C@H](CCCNC(N)=O)NC(=O)CCc1ccccc1 [Example 23, (3S,4S)-3-{N-(3-phenylpropionyl)-L-citrullinyl}-amino-4-acetoxy-azetidin-2-one] | 11000 nM | 11500 nM
27 | CC(=O)O[C@@H]1NC(=O)[C@H]1NC(=O)[C@H](CCCN=C(N)N[N+](=O)[O-])NC(=O)CCc1ccccc1 [Example 24, (3S,4S)-3-{N^α -(3-phenylpropionyl)-N-nitro-L-arginyl}-amino-4-acetoxy-azetidin-2-one] | 31400 nM | 16.8 nM
28 | CC(C)(C)OC[C@H](NC(=O)OCc1ccccc1)C(=O)N[C@@H]1C(=O)N[C@@H]1Oc1ccccc1 [Example 25, (3S,4R)-3-(2S-2-benzyloxycarbonylamino-2-t-butyloxymethyl-acetamido)-4-phenoxy-azetidin-2-one] | 11000 nM | 2190 nM
